# Assay results reported in US8053627B2, “Methods for treating demyelination disorders” (University of Chicago, priority 2005, dated 2011).
# Assays:
# [1] = tested on: oligodendrocytes in adult mice; test: IFN-γ expression in the CNS of adult mice (released from doxycycline at 4 weeks of age); assay type: in vivo
# Source text: Compared with the actively myelinating oligodendrocytes of young growing animals, oligodendrocytes in adult mice produce lower levels of membrane proteins and lipids, just enough to maintain homeostasis in the myelin structure (Morell, et al. (1999) Basic Neurochemistry: Molecular, Cellular, and Medical Aspects (Philadelphia, Pa.: Lippincott-Raven Publishers): 69-93). The ER of oligodendrocytes in adult animals may thus have more spare capacity to process increased protein load and as such may be less sensitive to disruptions of the protein secretory pathway. To examine this possibility, double transgenic mice were allowed to develop to maturity, at which time IFN-γ expression in the CNS was initiated.
# [2] = tested on: EAE demyelinating lesions; test: EAE, CNS delivery of INF-γ at the recovery stage (doxycycline withdrawn at PID7); assay type: in vivo, mice
# Source text: Double transgenic mice that allow for temporally regulated delivery of INF-γ to the CNS (Lin et al., J Neurosci 24:10074-10083 (2004)) were used to assess the role of INF-γ in the pathogenesis of EAE. GFAP/tTA; TRE/IFN-γ double transgenic mice, as described in Example 1 were used to determine the effect of INF-γ on the demyelination caused by EAE. All mice were fed doxycycline from the day of conception to repress the expression of INF-γ, and were immunized with myelin oligodendrocyte protein (MOG35-55) to induce EAE. AT day 7 postimmunization (PID7), doxycycline was withdrawn from the experimental group (PID7 DOX−).
# The level of INF-γ was determined in the control (DOX+) and the PID7 DOX− mice using an ELISA immunoassay as described in Example 1, and the severity of the disease was assessed as a function of a clinical score. Clinical severity scores were recorded daily according to a 0-5 point scale, where 0=healthy, 1=flaccid tail, 2=ataxia and/or paresis of hind limbs, 3=paralysis of hind limbs and/or paresis of forelimbs, 4=tetraparalysis, and 5=moribund or dead.
# The spinal cord from DOX+ and DOX− animals with EAE was immunostained for MBP, and the remyelination of axons was evaluated. The number of oligodendrocytes was determined in the spine from DOX+ and DOX− mice as the number of CC1 positive cells. Axonal damage was evaluted by immunostaining of non-phosphorylated neurofilament-H. Antibodies to non-phosphorylated neurofilament-H were SM132 diluted to 1:1000 and obtained from Sternberger Monoclonals.
# INF-γ is known to induce MHC antigens and activate macrophages and T lymphocytes. The inflammatory effect of INF-γ was studied in the CNS during remyelination by determining the infiltration of T cells and macrophages, and measuring the expression of MHC-1, TNF-a, IL-2, IL-12 and IL-17. Immunohistochemistry was performed in tissues from the DOX+ and DOX− mice with EAE as described in Example 4. Experimental procedures were followed as described in the examples above.
# [3] = tested on: oligodendrocytes and myelin; test: IFN-γ-overexpressing mice crossed to PLP/SOCS1 mice, clinical and histological evaluation at postnatal day 21; assay type: in vivo; settings: for oligodendrocyte density: corpus callosum, postnatal day 21; for G ratio (axon diameter/fiber diameter ratio): hypomyelination defined as G ratio>0.8
# Method: IFN-γ-overexpressing mice were crossed to the PLP/SOCS1 mice in double-transgenic, (MBP/IFN-γ×PLP/SOCS1) and triple-transgenic (GFAP/tTA×TRE/IFN-γ×PLP/SOCS1) mating systems. MBP/IFN-γ×PLP/SOCS1 (172×PLP/SOCS1) mating was performed according to a standard mating protocol. The GFAP/tTA×TRE/IFN-γ×PLP/SOCS1 matings were performed in a 2-step mating process: GFAP/tTA mice were initially crossed to PLP/SOCS1 mice, and double-positive (184×PLP/SOCS1) offspring were then crossed to the TRE/IFN-γ lines 110 and 67, separately. This second mating step was performed according to the previously described “tet-off” protocol. Doxycycline 0.05 mg/ml (Sigma-Aldich) was added to the water of impregnated female mice until embryonic day 14, after which the animals were switched back to normal water, thereby allowing initiation of IFN-γ transcription, which peaks during the postnatal period (Lin et al., 2005).
# The litters of the mating systems (F1 generation) were examined daily and sacrificed at postnatal day 21. Clinical evaluation included behavioral observation and challenged ladder walking to elicit tremor. Histological examination included quantitation of the number and density of oligodendrocytes and examination of the myelination patterns. Brain tissue was simultaneously obtained from each animal at the time of sacrifice to verify and measure the expression of IFN-γ and Flag-SOCS1 (see below). The clinical and histological findings were subsequently stratified according to genotype. All animal procedures were conducted in compliance with the National Institutes of Health Guide for Care and Use of Laboratory Animals and were approved by the Institutional Animal Care and Use Committee at The University of Chicago.
# Oligodendrocyte cell density was assessed digitally using Axiovision software, at postnatal day 21, as previously described (Lin et al., 2005). The brains were sectioned sagittally through the corpus callosum dividing the brain in two symmetrical halves. Ten frozen sections from each half were prepared at 7 μm thickness, and numbered in the sequence of their preparation. The brains of three animals per study group were prepared in this fashion. Following the CC1 immunostaining the corresponding area of corpus callosum of each section was digitally selected and the corresponding total area obtained. CC1 cell counting was performed manually within the selected areas of each section, and the number of CC1 positive cells per square area (mm^2) calculated. The results were presented as mean±SD of CC1 (+) cells/mm^2 with n=3 animals per study group.
# Myelination patterns of the examined animals were assessed at postnatal day 21 by calculating the percent unmyelinated axons and ratio of the axon/fiber diameters (G ratio) with Image J software (National Institutes of Health, Bethesda, Md.) as previously described (Lin at al., 2005). The brains were sectioned sagittally through the corpus callosum dividing the brain in two symmetrical halves. Approximately 2 mm^3 samples from the genu and the splenum of both halves of corpus callosum were obtained using a Wild M3C stereotype microscope. The orientation of the specimen in the resin blocks yielding axonal cross-sections (well seen myelin rings) was chosen, and established by toluedine blue staining of a few sample sections. The resin blocks with the chosen orientation were processed for electron microscope examination. Randomly selected areas were examined and ten representative pictures from both genu and splenum corpus callosum were obtained at 12000× magnification. The number of unmyelinated axons was assessed by manual counting of axons that lacked myelin and were encircled solely by their own plasma membrane. All unmyelinated axons present in the representative images were counted, and their percentage calculated by examining a total of five hundred axons per tissue sample. […]
# [4] = DOX− vs DOX+, spinal cord PID50
substance,measurement,setting,value
IFN-γ: pleotropic cytokine secreted by activated T lymphocytes and natural killer cells; delivered to the CNS by transgene or added as recombinant protein,BIP and CHOP in the cerebellum,[1]; 10-week-old double transgenic mice,modest induction
same,myelin in the CNS (ultrastructural examination),"[1]; 10-week-old, wild-type or PERK+/− background",normal myelin
same,oligodendrocyte survival,"[1]; adult mice, also PERK+/− background",did not affect
same,number of CC1 positive oligodendrocytes,"[2]; DOX− animals, PID50",significantly decreased
same,mice that developed hind limb paralysis,"[2]; DOX− mice, PID17",24 of 30
same,mean maximum clinical score,"[2]; DOX− mice, PID17, 0-5 scale",2.69±0.69
same,clinical score,"[2]; DOX− mice, PID50",~2
same,mice continuing to suffer from hind limb paralysis,"[2]; DOX− mice, PID50",12/24
same,axonal damage (non-phosphorylated neurofilament-H immunostaining),[2]; DOX− vs DOX+,not affected
same,level of MBP in the lumbar spinal cord (immunostaining),[2]; DOX− vs DOX+ mice,notably reduced
same,expression of IL-17 (real time PCR),[2]; [4],decrease
same,"expression of MHC-1, TNF-a, LL2 and IL-12 (real time PCR)",[2]; [4],increased
same,expression of iNOs and IL-23 (real time PCR),[2]; [4],did not alter
same,"number of infiltrating T cells and macrophages in the lumbar spinal cord (CD3, CD11b)","[2]; mouse, in vivo",did not increase significantly
same,Incidence of tremor,"[3]; 172 × PLP/SOCS1 littermates, ten mice per group",0%
same,oligodendrocytes lost,[3]; 184/67 system,approximately 40%
same,percentage of unmyelinated axons,[3]; 184/67 system,57±7%
same,oligodendrocyte density,[3]; 184/67 system,79±9 CC1 (+) cells/mm^2
same,G ratio (axon diameter/fiber diameter ratio),[3]; 184/67 system,0.95±0.04
same,oligodendrocytes lost,[3]; 184/110 system,approximately 20%
same,percentage of unmyelinated axons,[3]; 184/110 system,41%±6
same,oligodendrocyte density,[3]; 184/110 system,115±8 CC1 (+) cells/mm^2
same,G ratio (axon diameter/fiber diameter ratio),[3]; 184/110 system,0.89±0.02
same,MHC class I molecule expression (immunostaining),[3]; MBP/IFN-γ and MBP/IFN-γ×PLP/SOCS1 brains,upregulated expression
